In ChEMBL document CHEMBL1201862, “PubChem BioAssay data set” (2004):
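48-hour exposure; five concentrations; linearly interpolated endpoints. The concentration for 50% growth inhibition is given as GI50.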 Activity calls are given as the source filed them. Cut-off read from the data, not from the text of the source: active = GI50 up to about 1.1 µM and inactive = higher.

What was measured:
Assay in all cases: DTP human tumour cell line panel, 48 h
[1] = tested on: A549
[2] = tested on: UO-31
[3] = tested on: KM12
[4] = tested on: MDA-N
[5] = tested on: ACHN
[6] = tested on: Hs-578T
[7] = tested on: HCT-15
[8] = tested on: SNB-75
[9] = tested on: MDA-MB-231
[10] = tested on: UACC-257
[11] = tested on: Malme-3M
[12] = tested on: NCI-H522
[13] = tested on: DU-145
[14] = tested on: SW-620
[15] = tested on: TK-10
[16] = tested on: RPMI-8226
[17] = tested on: SK-OV-3
[18] = tested on: IGROV-1
[19] = tested on: SK-MEL-2

With `c1csc(-c2cc(-c3ccsc3)c(-c3cccs3)s2)c1` the GI50 [1] was 92.7 µM (inactive), the GI50 [2] was 76.2 µM (inactive) and the GI50 [3] was 31.8 µM (inactive). For the same compound, the GI50 [4] was 32 µM (inactive), the GI50 [5] was 99.5 µM (inactive) and the GI50 [6] was > 100 µM (inactive). The GI50 [7] was 44.1 µM, the GI50 [8] was 17.9 µM (inactive) and the GI50 [9] was 29.8 µM (inactive). The GI50 [10] was 56.2 µM (inactive), the GI50 [11] was 59.2 µM (inactive) and the GI50 [12] was 61.7 µM (inactive). The GI50 [13] was > 100 µM (inactive), the GI50 [14] was 74.3 µM (inactive) and the GI50 [15] was > 100 µM (inactive).
In the case of `Cn1c(=O)c2c(-c3ccccc3)onc2n(C)c1=O`, the GI50 [1] is reported as 21.3 µM (inactive), the GI50 [2] is reported as 19.5 µM (inactive) and the GI50 [16] is reported as 15 µM (inactive). For the same compound, the GI50 [3] was 34 µM (inactive), the GI50 [4] was 50.2 µM (inactive) and the GI50 [5] was 31.9 µM (inactive). For the same compound, the GI50 [17] was > 100 µM (inactive), the GI50 [6] was 24.5 µM (inactive) and the GI50 [7] was 21.1 µM. The GI50 [8] was 24.6 µM (inactive), the GI50 [18] was 20.3 µM (inactive) and the GI50 [19] was 15.8 µM (inactive). For the same compound, the GI50 [9] was 49.9 µM (inactive), the GI50 [10] was 31.3 µM (inactive) and the GI50 [11] was 46.8 µM (inactive). For the same compound, the GI50 [12] was 27.9 µM (inactive), the GI50 [14] was 26.6 µM (inactive) and the GI50 [15] was 14.4 µM (inactive).
With `CC1(C)OC(=S)N(c2ccccc2)C12C=Cc1cc3ccccc3cc1O2` (centres undefined) the GI50 [1] was > 100 µM (inactive), the GI50 [2] was > 100 µM (inactive) and the GI50 [16] was 92 µM (inactive). The GI50 [3] was > 100 µM (inactive), the GI50 [4] was > 100 µM (inactive) and the GI50 [5] was > 100 µM (inactive). For the same compound, the GI50 [17] was > 100 µM (inactive), the GI50 [6] was > 100 µM (inactive) and the GI50 [7] was > 100 µM. For the same compound, the GI50 [8] was > 100 µM (inactive), the GI50 [18] was 6.28 µM (inactive) and the GI50 [19] was > 100 µM (inactive). For the same compound, the GI50 [9] was > 100 µM (inactive), the GI50 [10] was > 100 µM (inactive) and the GI50 [13] was > 100 µM (inactive). For the same compound, the GI50 [14] was > 100 µM (inactive) and the GI50 [15] was > 100 µM (inactive).
For `Cc1csc(NC23CC4CC(CC(C4)C2)C3)[n+]1C(P(=O)([O-])O)P(=O)(O)O` (centres undefined), the GI50 [1] was > 100 µM (inactive), the GI50 [2] was > 100 µM (inactive) and the GI50 [16] was > 100 µM (inactive). The GI50 [3] was > 100 µM (inactive), the GI50 [4] was > 100 µM (inactive) and the GI50 [5] was > 100 µM (inactive). The GI50 [17] was > 100 µM (inactive), the GI50 [6] was > 100 µM (inactive) and the GI50 [7] was > 100 µM. The GI50 [8] was > 100 µM (inactive), the GI50 [18] was > 100 µM (inactive) and the GI50 [9] was > 100 µM (inactive). For the same compound, the GI50 [10] was > 100 µM (inactive), the GI50 [11] was > 100 µM (inactive) and the GI50 [12] was > 100 µM (inactive). The GI50 [13] was > 100 µM (inactive), the GI50 [14] was > 100 µM (inactive) and the GI50 [15] was > 100 µM (inactive).
`Nc1ccc(Nc2c3ccccc3nc3ccccc23)cc1` was tested, and the GI50 [1] was 3.15 µM (inactive), the GI50 [16] was 4.49 µM (inactive) and the GI50 [3] was 8.05 µM (inactive). The GI50 [4] was 5.12 µM (inactive), the GI50 [5] was 1.89 µM (inactive) and the GI50 [17] was 5.5 µM (inactive). For the same compound, the GI50 [6] was 7.55 µM (inactive), the GI50 [7] was 2.84 µM and the GI50 [18] was 6.65 µM (inactive). The GI50 [19] was 7.87 µM (inactive), the GI50 [9] was 5.81 µM (inactive) and the GI50 [10] was > 10 µM (inactive). The GI50 [11] was 2.98 µM (inactive), the GI50 [12] was 4.79 µM (inactive) and the GI50 [13] was 4.92 µM (inactive). For the same compound, the GI50 [14] was 2.26 µM (inactive) and the GI50 [15] was 5.98 µM (inactive).
`C/C(=N\Nc1nc2cc(Cl)ccc2s1)c1ccccn1` was tested, and the GI50 [1] was 0.755 µM (active), the GI50 [2] was 0.0685 µM (active) and the GI50 [16] was 0.264 µM (active). For the same compound, the GI50 [3] was 0.63 µM (active), the GI50 [4] was 1.73 µM (inactive) and the GI50 [5] was 0.191 µM (active). For the same compound, the GI50 [17] was 0.404 µM (active), the GI50 [6] was 2.89 µM (inactive) and the GI50 [7] was 0.111 µM. For the same compound, the GI50 [8] was 1.72 µM (inactive), the GI50 [18] was 0.127 µM (active) and the GI50 [19] was 0.442 µM (active). For the same compound, the GI50 [9] was 0.405 µM (active), the GI50 [10] was 0.519 µM (active) and the GI50 [11] was 0.834 µM (active). The GI50 [12] was 0.189 µM (active), the GI50 [14] was 0.817 µM (active) and the GI50 [15] was 2.74 µM (inactive).
For `COC(=O)/C=C(\S/C(=C(/c1ccc(OC)cc1)n1cc(C(=O)OC)c(C(=O)OC)n1)c1ccc(OC)cc1)C(=O)OC`, the GI50 [1] was 77.6 µM (inactive), the GI50 [2] was 4.14 µM (inactive) and the GI50 [16] was 38.3 µM (inactive). For the same compound, the GI50 [3] was 76.2 µM (inactive), the GI50 [4] was 19.6 µM (inactive) and the GI50 [5] was 5.13 µM (inactive). For the same compound, the GI50 [17] was > 100 µM (inactive), the GI50 [6] was 47.9 µM (inactive) and the GI50 [7] was 6.43 µM. The GI50 [8] was 55.1 µM (inactive), the GI50 [18] was 6.4 µM (inactive) and the GI50 [19] was 32.6 µM (inactive). For the same compound, the GI50 [9] was > 100 µM (inactive), the GI50 [10] was 8.49 µM (inactive) and the GI50 [11] was 13.7 µM (inactive). For the same compound, the GI50 [13] was 15.6 µM (inactive), the GI50 [14] was 7.06 µM (inactive) and the GI50 [15] was 4.33 µM (inactive).
In the case of `COC(=O)C1(Cc2ccccc2)Cc2ccccc2C1`, the GI50 [1] is reported as 26.7 µM (inactive), the GI50 [2] is reported as 7.73 µM (inactive) and the GI50 [16] is reported as 20.4 µM (inactive). The GI50 [3] was 21.8 µM (inactive), the GI50 [4] was 17.3 µM (inactive) and the GI50 [5] was 18.7 µM (inactive). The GI50 [17] was 39.6 µM (inactive), the GI50 [6] was 27.5 µM (inactive) and the GI50 [7] was 26.1 µM. For the same compound, the GI50 [8] was 23.3 µM (inactive), the GI50 [18] was 28.4 µM (inactive) and the GI50 [19] was 11.5 µM (inactive). For the same compound, the GI50 [9] was 32.7 µM (inactive), the GI50 [10] was 24.4 µM (inactive) and the GI50 [11] was 15.5 µM (inactive). The GI50 [13] was 30.8 µM (inactive), the GI50 [14] was 35 µM (inactive) and the GI50 [15] was 21.2 µM (inactive).
